Data reported in paper PMC3958129, “Enzyme kinetics and distinct modulation of the protein kinase N family of kinases by lipid activators and small molecule inhibitors” (Bioscience Reports, 2014).
Where two headings read alike, the source gives them in different places.

What was measured:
PKN3 [1] = biological target: T1, PKN3 (Homo sapiens, UniProt Q6P5Z2); test: PKN3 kinase inhibition, off-chip mobility shift assay; assay type: biochemical; design: Full-length, FLAG-tagged human PKN1, PKN2 and PKN3 were expressed in mammalian HEK-293 cells
Protocol: (§4) The activity of all PKN proteins was monitored through the use of a highly sensitive off-chip mobility shift assay utilizing a LabChip EZ Reader II instrument (Caliper Life Sciences/PerkinElmer); this assay format has been described elsewhere [31]. […] Peptide concentration was adjusted according to purity and peptide content. For inhibition studies, the inhibitor was pre-incubated with enzyme for 15 min at room temperature. All reactions were initiated with ATP and conducted at room temperature (~22°C).
(§5) All data were globally fit using non-linear regression and GraphPad Prism software. Non-linear data were converted to double-reciprocal Lineweaver–Burk plots for visual and presentation purposes only. Kinetic data were analysed in duplicate, and each plot is representative of at least two independent experiments.
(§6) For enzyme inhibition studies, data were fit to eqns (2)–(4) for competitive, non-competitive and uncompetitive inhibition, respectively: (2) v=Vmax[S]/[S]+KM1+[I]/Ki (3) v=Vmax[S]/([S]+KM)1+[I]/Ki (4) v=Vmax[S]/[S]1+[I]/αKi+KM
(§7) For eqns (1)–(4), v is measured velocity, Vmax is maximum velocity, [ATP], [Pep] and [S] are concentrations of ATP, peptide and varied substrate, respectively; Kia is the equilibrium dissociation constant of ATP, KM,ATP, KM,Pep and KM are the Michaelis–Menten constants for ATP, peptide and the varied substrate, respectively. [I] is the inhibitor concentration, α describes the preference for inhibitor binding to either free or substrate bound enzyme and Ki is the inhibitor equilibrium dissociation constant.

PKN2 [2] = biological target: T2, PKN2 (Homo sapiens, UniProt Q16513); test: PKN2 kinase inhibition, off-chip mobility shift assay; assay type: biochemical; design: Full-length, FLAG-tagged human PKN1, PKN2 and PKN3 were expressed in mammalian HEK-293 cells; host or cells: HEK-293 (transient transfection, pcDNA4/TO)
Protocol: as §4, §5, §6, §7

PKN1 [3] = biological target: T3, PKN1 (Homo sapiens, UniProt Q16512); test: PKN1 kinase inhibition, off-chip mobility shift assay; assay type: biochemical; design: Full-length, FLAG-tagged human PKN1, PKN2 and PKN3 were expressed in mammalian HEK-293 cells; host or cells: HEK-293 (transient transfection, pcDNA4/TO)
Protocol: as §4, §5, §6, §7

PKN1, PKN2 and PKN3 = test: PKN isoform selectivity from Ki values (Ki ratio); assay type: biochemical, human; conditions: for Isoform selectivity: isoform(s) preferred, defined as ~10-fold or greater Ki ratio
Excerpt: The activity of all PKN proteins was monitored through the use of a highly sensitive off-chip mobility shift assay utilizing a LabChip EZ Reader II instrument (Caliper Life Sciences/PerkinElmer); this assay format has been described elsewhere [31]. […] The likely site of phosphorylation is underlined, as determined through comparison with the published phosphorylation consensus sequence for PKN1 and PKN3 substrates [27]. […] Peptide concentration was adjusted according to purity and peptide content. For inhibition studies, the inhibitor was pre-incubated with enzyme for 15 min at room temperature. All reactions were initiated with ATP and conducted at room temperature (~22°C).

PKN3 [4] = biological target: T1, PKN3; test: Lipid activation of PKN3 kinase activity, off-chip mobility shift assay; assay type: biochemical; design: Full-length, FLAG-tagged human PKN1, PKN2 and PKN3 were expressed in mammalian HEK-293 cells; conditions: increase in initial rate; saturating ATP (500 μM), 3 μM peptide, 3 nM PKN3
Protocol: (§1) Lipids were supplied as a solid powders, ethanol, or chloroform solutions. All solids were dissolved directly into assay buffer and briefly water bath sonicated at room temperature for 10 min. Lipids supplied as solutions in organic solvent were dried under a gentle stream of nitrogen, resuspended in assay buffer, and similarly sonicated. All lipids were prepared fresh daily.
(§2) The activity of all PKN proteins was monitored through the use of a highly sensitive off-chip mobility shift assay utilizing a LabChip EZ Reader II instrument (Caliper Life Sciences/PerkinElmer); this assay format has been described elsewhere. Kinase activity was monitored through the phosphorylation of a 5-FAM-labelled PKN substrate peptide found through Pfizer in-house optimization efforts and derived from the amino acid sequence of GSK3α (accession no. AAH51865.1) with the following sequence: 5-FAM-C6-[…]-NH2. The likely site of phosphorylation is underlined, as determined through comparison with the published phosphorylation consensus sequence for PKN1 and PKN3 substrates. Reaction buffer contained 25 mM Tris, pH 8.0, 5 mM MgCl2, 0.002% CHAPS and 2 mM DTT, with indicated protein, ATP and peptide concentrations. Peptide concentration was adjusted according to purity and peptide content. For inhibition studies, the inhibitor was pre-incubated with enzyme for 15 min at room temperature. All reactions were initiated with ATP and conducted at room temperature (~22°C). Reactions were terminated by the addition of EDTA, pH 8.0, at a final concentration of 25 mM. All reaction rates were determined to be linear with respect to time and enzyme concentration where no more than 20% of peptide substrate had been converted to product. Aliquots of each reaction were transferred in duplicate to a 384-well plate and analysed on a LabChip EZ Reader II with separation buffer containing 100 mM Hepes, pH 7.5, 0.015% Brij-35, 1 mM EDTA, 0.1% CR3 coating reagent, 1×CR8 coating reagent and 5% DMSO, with the following settings: downstream voltage: −500 V, upstream voltage: −2300 V, base pressure: −0.5 psi; screen pressure: −1.7 psi.
Ki values for representative inhibitors were determined by fitting initial reaction velocities to eqn (2) for competitive inhibition using the method of non-linear least-squares using GraphPad Prism. Turnover number (kcat) was calculated by normalizing Vmax values for enzyme concentration.
(§3) Figure 2 PKN responses to lipid activators in biochemical assays Lipids were prepared as described under the Experimental section, and kinase activity of PKN isoforms was measured using off-chip mobility shift assay described in the Methods section. Each lipid was titrated in the presence of 1 nM, 5 nM and 3 nM PKN1–3, respectively, 3 μM peptide and 500 μM ATP. vi is the initial rate at each concentration of lipid activator and vo is the initial rate in the absence of lipid.

PKN2 [5] = biological target: T2, PKN2; test: Lipid activation of PKN2 kinase activity, off-chip mobility shift assay; assay type: biochemical; design: Full-length, FLAG-tagged human PKN1, PKN2 and PKN3 were expressed in mammalian HEK-293 cells; host or cells: HEK-293 (transient transfection, pcDNA4/TO); conditions: for PKN2 Maximal fold activation: increase in initial rate; for effect on PKN2 kinase activity: in words, saturating ATP
Protocol: as §1
as §2, with “psi. […]” for “psi.”
as §3

PKN1 [6] = biological target: T3, PKN1; test: Lipid activation of PKN1 kinase activity, off-chip mobility shift assay; assay type: biochemical; design: Full-length, FLAG-tagged human PKN1, PKN2 and PKN3 were expressed in mammalian HEK-293 cells; host or cells: HEK-293 (transient transfection, pcDNA4/TO); conditions: saturating ATP (500 μM), 3 μM peptide, 1 nM PKN1; for PKN1 Maximal fold activation: increase in initial rate; for EC50: lipid activator
Protocol: as §1
as §2, with “psi. […]” for “psi.”
as §3

[7] = absence of lipids, fit to competitive inhibition, ±S.D., n=2, read-out: PKN3, Ki
[8] = absence of lipids, fit to competitive inhibition, ±S.D., n=2, read-out: PKN2, Ki
[9] = absence of lipids, fit to competitive inhibition, ±S.D., n=2, read-out: PKN1, Ki
[10] = saturating ATP (500 μM), 3 μM peptide, 5 nM PKN2

T2 sequence (Q16513 whole entry): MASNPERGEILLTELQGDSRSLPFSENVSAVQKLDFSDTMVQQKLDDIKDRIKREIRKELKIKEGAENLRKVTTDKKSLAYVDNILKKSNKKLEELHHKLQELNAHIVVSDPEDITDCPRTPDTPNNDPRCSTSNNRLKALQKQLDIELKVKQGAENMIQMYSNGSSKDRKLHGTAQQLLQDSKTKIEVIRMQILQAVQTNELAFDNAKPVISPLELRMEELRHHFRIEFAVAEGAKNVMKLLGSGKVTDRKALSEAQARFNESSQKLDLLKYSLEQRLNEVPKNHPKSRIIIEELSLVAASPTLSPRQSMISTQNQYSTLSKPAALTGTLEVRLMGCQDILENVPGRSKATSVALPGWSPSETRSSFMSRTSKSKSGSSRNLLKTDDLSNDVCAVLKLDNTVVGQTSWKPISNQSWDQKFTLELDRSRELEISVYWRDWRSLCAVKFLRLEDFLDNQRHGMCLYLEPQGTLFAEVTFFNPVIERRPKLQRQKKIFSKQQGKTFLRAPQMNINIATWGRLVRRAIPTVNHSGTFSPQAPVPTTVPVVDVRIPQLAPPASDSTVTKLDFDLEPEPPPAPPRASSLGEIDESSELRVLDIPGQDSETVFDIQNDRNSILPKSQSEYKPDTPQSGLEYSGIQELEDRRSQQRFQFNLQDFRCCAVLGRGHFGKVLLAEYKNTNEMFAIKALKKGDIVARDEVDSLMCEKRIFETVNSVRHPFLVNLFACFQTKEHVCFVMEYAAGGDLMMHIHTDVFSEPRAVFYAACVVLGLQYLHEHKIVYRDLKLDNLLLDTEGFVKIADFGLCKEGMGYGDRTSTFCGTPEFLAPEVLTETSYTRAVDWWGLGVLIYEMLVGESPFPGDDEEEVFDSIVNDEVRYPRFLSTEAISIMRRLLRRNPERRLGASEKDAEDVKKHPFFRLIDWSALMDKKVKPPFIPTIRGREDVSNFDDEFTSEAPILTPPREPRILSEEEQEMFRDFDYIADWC
T3 sequence (Q16512 whole entry, canonical isoform): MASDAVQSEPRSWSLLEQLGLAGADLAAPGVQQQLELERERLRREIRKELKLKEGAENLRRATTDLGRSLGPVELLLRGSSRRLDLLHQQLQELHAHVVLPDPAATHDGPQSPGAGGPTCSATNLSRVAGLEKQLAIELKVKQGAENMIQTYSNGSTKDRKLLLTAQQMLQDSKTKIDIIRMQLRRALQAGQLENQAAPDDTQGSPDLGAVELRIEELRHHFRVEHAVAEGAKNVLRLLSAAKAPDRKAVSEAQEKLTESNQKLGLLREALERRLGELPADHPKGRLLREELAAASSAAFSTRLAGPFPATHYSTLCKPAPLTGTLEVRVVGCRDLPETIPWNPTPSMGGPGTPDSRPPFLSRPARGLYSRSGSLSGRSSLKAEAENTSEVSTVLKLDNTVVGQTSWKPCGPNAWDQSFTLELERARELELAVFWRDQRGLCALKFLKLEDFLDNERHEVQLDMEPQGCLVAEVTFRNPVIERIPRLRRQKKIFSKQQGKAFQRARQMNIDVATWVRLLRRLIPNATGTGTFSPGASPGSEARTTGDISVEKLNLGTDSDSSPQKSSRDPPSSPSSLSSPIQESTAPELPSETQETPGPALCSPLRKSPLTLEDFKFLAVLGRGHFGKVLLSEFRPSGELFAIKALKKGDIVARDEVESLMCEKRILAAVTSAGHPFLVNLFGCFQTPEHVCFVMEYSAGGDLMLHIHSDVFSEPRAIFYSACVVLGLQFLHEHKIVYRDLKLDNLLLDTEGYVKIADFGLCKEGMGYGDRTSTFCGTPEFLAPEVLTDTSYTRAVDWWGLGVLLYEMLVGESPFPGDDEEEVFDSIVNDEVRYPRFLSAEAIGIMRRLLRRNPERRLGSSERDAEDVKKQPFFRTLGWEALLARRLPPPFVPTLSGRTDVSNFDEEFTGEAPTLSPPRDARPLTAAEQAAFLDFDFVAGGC
T1 sequence (Q6P5Z2 whole entry): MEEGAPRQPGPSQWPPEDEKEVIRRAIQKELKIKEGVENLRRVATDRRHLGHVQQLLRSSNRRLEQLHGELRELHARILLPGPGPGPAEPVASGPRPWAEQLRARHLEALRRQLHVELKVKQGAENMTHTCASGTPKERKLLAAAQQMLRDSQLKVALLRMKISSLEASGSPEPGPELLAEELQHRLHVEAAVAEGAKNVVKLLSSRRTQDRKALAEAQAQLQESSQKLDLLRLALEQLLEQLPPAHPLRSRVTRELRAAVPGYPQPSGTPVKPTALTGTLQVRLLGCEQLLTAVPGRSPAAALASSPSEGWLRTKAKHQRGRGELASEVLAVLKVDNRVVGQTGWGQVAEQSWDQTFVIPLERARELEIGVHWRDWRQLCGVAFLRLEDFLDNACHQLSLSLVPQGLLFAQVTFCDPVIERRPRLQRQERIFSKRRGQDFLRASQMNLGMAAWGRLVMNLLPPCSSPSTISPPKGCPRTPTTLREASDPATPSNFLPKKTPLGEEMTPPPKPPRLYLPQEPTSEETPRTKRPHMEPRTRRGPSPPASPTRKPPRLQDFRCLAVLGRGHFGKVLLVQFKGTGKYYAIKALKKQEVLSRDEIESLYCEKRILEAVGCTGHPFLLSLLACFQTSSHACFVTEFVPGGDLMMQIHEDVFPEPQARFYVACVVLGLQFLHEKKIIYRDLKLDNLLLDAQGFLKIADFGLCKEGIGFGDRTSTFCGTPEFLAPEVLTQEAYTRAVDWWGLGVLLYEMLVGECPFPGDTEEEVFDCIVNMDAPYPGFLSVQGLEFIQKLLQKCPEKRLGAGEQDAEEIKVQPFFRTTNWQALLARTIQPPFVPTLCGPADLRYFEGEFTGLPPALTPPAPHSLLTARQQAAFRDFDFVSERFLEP

Ki (PKN3 [1]; [7])	Ki (PKN2 [2]; [8])	Ki (PKN1 [3]; [9])	PKN3 Maximal fold activation (PKN3 [4])	PKN2 Maximal fold activation (PKN2 [5]; [10])	PKN1 Maximal fold activation (PKN1 [6])	Compound	also measured
–	–	–	–	–	–	Nc1ncnc2c1ncn2[C@@H]1O[C@H](COP(=O)(O)OP(=O)(O)O)[C@@H](O)[C@H]1O [ADP]	Ki (PKN3 [1]; product inhibition, competitive with respect to ATP, 5 μM peptide, 7.8–250 μM ATP, 4 nM enzyme, 5 μM arachidonic acid, read-out: PKN3 Ki): 69 ± 5 µM; Ki (PKN3 [1]; product inhibition, non-competitive with respect to peptide, 50 μM ATP, 0.9–30 μM peptide, 4 nM enzyme, 5 μM arachidonic acid, read-out: PKN3 Kiapp): 320 ± 12 µM; Ki (PKN2 [2]; product inhibition, competitive with respect to ATP, 2 μM peptide, 6–200 μM ATP, 2 nM enzyme, 100 μM arachidonic acid, read-out: PKN2 Ki): 26 ± 4 µM; Ki (PKN2 [2]; product inhibition, non-competitive with respect to peptide, 20 μM ATP, 0.3–10 μM peptide, 2 nM enzyme, 100 μM arachidonic acid, read-out: PKN2 Kiapp): 65 ± 5 µM; Ki (PKN1 [3]; product inhibition, competitive with respect to ATP, 3 μM peptide, 31–1000 μM ATP, 1 nM enzyme, 100 μM arachidonic acid, read-out: PKN1 Ki): 53 ± 4 µM; Ki (PKN1 [3]; product inhibition, non-competitive with respect to peptide, 50 μM ATP, 0.3–10 μM peptide, 1 nM enzyme, 100 μM arachidonic acid, read-out: PKN1 Kiapp): 170 ± 14 µM
0.17 ± 0.01 µM	0.017 ± 0.002 µM	–	–	–	–	Cn1cc(C2=C(c3cn(CCCSC(=N)N)c4ccccc34)C(=O)NC2=O)c2ccccc21 [Compound 2, Ro 31-8220]	–
2.3 ± 0.5 µM	0.09 ± 0.02 µM	0.079 ± 0.008 µM	–	–	–	CN(C)CCCn1cc(C2=C(c3c[nH]c4ccccc34)C(=O)NC2=O)c2ccccc21 [Compound 3, GF 109203X]	selectivity for PKN1/2 over PKN3 (PKN1, PKN2 and PKN3; from Ki values): at least 25 fold; Isoform selectivity (PKN1, PKN2 and PKN3): PKN1/2
0.034 ± 0.002 µM	0.012 ± 0.002 µM	0.22 ± 0.02 µM	–	–	–	Nc1nc(Nc2ccc(S(N)(=O)=O)cc2)nn1C(=S)Nc1c(F)cccc1F [Compound 6, CDK1/2 inhibitor III]	selectivity for PKN2 over PKN1 (PKN1, PKN2 and PKN3; from Ki values): 18 fold; selectivity for PKN2 over PKN3 (PKN1, PKN2 and PKN3; in words): only minimal selectivity; Isoform selectivity (PKN1, PKN2 and PKN3): PKN2/3
0.004 ± 0.0003 µM	2.3 ± 0.4 µM	> 5 µM	–	–	–	Oc1ccc(-c2nc(-c3ccncc3)c(-c3ccc(F)cc3)[nH]2)cc1 [Compound 9, SB-202190]	–
0.01 ± 0.002 µM	1.8 ± 0.3 µM	1.8 ± 0.3 µM	–	–	–	CNCCNS(=O)(=O)c1cccc2cnccc12 [Compound 10, H-8]	–
–	> 5 µM	2.9 ± 0.7 µM	–	–	–	CN(C(Cc1ccc(OS(=O)(=O)c2cccc3cnccc23)cc1)C(=O)N1CCN(c2ccccc2)CC1)S(=O)(=O)c1cccc2cnccc12 (stereo not shown) [Compound 11, KN62]	–
–	–	0.8 ± 0.1 µM	–	–	–	O=S(=O)(c1cccc2cnccc12)N1CCCNCC1 [Compound 12, HA-1077]	–
–	–	–	<2 fold	<2 fold	<2 fold	CCCCCCCC(=O)OC[C@H](CO)OC(=O)CCCCCCC [DAG, 1,2-dioctanoyl-sn-glycerol]	–
–	–	–	<2 fold	<2 fold	<2 fold	O=P(O)(O)O[C@@H]1[C@H](O)[C@H](O)[C@@H](OP(=O)(O)O)[C@H](OP(=O)(O)O)[C@H]1O [IP3, D-myo-inositol-1,3,5-triphosphate]	–
–	–	–	–	–	–	H-PRLQRQERIFSKRRG-OH [PKN3-PRL]	Ki (PKN3 [1]; competitive with respect to peptide substrate, 250 μM ATP, 0.9–30 μM peptide, 4 nM enzyme, 5 μM arachidonic acid, read-out: PKN3 Ki with respect to peptide substrate): 5.4 µM; PKN3 αKi with respect to ATP (PKN3 [1]; uncompetitive with respect to ATP, 6 μM peptide, 7.8–250 μM ATP, 4 nM enzyme, 5 μM arachidonic acid): 1.3 µM
–	–	–	<2 fold	<2 fold	15 fold	Phosphatidylserine	effect on PKN2 kinase activity (PKN2 [5]): not affected; PKN1 Maximal fold activation (PKN1 [6]; listed as phosphatidylserine): 10–16 fold; EC50 (PKN1 [6]): 3 ± 1 µM
–	–	–	<2 fold	<2 fold	11 fold	phosphatidylinositol-3,4,5-triphosphate [PIP3]	effect on PKN2 kinase activity (PKN2 [5]): not affected; EC50 (PKN1 [6]): 2 ± 1 µM
–	–	–	<2 fold	7 fold	14 fold	phosphatidylinositol-4,5-bisphosphate [PIP2]	effect on PKN2 kinase activity (PKN2 [5]): increased; EC50 (PKN2 [5]; lipid activator, saturating ATP (500 μM), 3 μM peptide, 5 nM PKN2): 2 ± 1 µM; EC50 (PKN1 [6]): 5 ± 1 µM

Compound	Ki (PKN3 [1]; [7])	Ki (PKN2 [2]; [8])	Ki (PKN1 [3]; [9])	PKN3 Maximal fold activation (PKN3 [4])	PKN2 Maximal fold activation (PKN2 [5]; [10])	PKN1 Maximal fold activation (PKN1 [6])	also measured
CO[C@@H]1[C@H](N(C)C(=O)c2ccccc2)C[C@H]2O[C@]1(C)n1c3ccccc3c3c4c(c5c6ccccc6n2c5c31)C(=O)NC4 [Compound 1, PKC412]	< 0.0002 µM	–	–	–	–	–	–
O=C1Nc2ccc3ncsc3c2/C1=C/c1c[nH]cn1 [Compound 5, PKR inhibitor]	0.24 ± 0.03 µM	0.041 ± 0.007 µM	0.41 ± 0.05 µM	–	–	–	Isoform selectivity (PKN1, PKN2 and PKN3): PKN2
